According to ChEMBL document CHEMBL1132968, “Substituent effects on the antibacterial activity of nitrogen-carbon-linked (azolylphenyl)oxazolidinones with expanded activity against the fastidious gram-negative organisms Haemophilus influenzae and Moraxella catarrhalis” (2000):
Converted amounts (≈) assume the structure as drawn.

Columns and labels:
Assay type in all cases: functional
Streptococcus pneumoniae = assay: Inhibitory activity against Streptococcus pneumoniae UC9912
[1] = test system: Staphylococcus epidermidis; assay: Inhibitory activity against Methicillin-resistant Staphylococcus epidermidis UC12084
Mus musculus [2] = assay: Dose required to cure 50% of Staphylococcus aureus infected mice in the presence of eperezolid when orally administered; value ranges from 0.1-6.6; settings: po
Mus musculus [3] = assay: Dose required to cure 50% of Staphylococcus aureus infected mice when orally administered; value ranges 1.1-2.7; settings: po
Enterococcus faecalis = assay: Inhibitory activity against Enterococcus faecalis UC9217
Haemophilus influenzae = assay: Inhibitory activity against Haemophilus influenzae UC30063
Moraxella catarrhalis = assay: Inhibitory activity against Moraxella catarrhalis UC30610
Staphylococcus aureus [4] = assay: Inhibitory activity against Methicillin-resistant Staphylococcus aureus UC6685
Staphylococcus aureus [5] = assay: Inhibitory activity against Methicillin-susceptible Staphylococcus aureus UC9213
Mus musculus [6] = assay: Dose administered required to cure 50% of Staphylococcus aureus infected mice when administered orally; value ranges from 2.0-4.9; settings: po
Mus musculus [7] = assay: Dose required to cure 50% of Staphylococcus aureus infected mice in the presence of eperezolid when administered orally;value ranges from 1.9-6.6; settings: po
Mus musculus [8] = assay: Dose required to cure 50% of Staphylococcus aureus infected mice in the presence of eperezolid when orally administered; value ranges from 2.2-2.9; settings: po
Mus musculus [9] = assay: Dose required to cure 50% of Staphylococcus aureus infected mice when orally administered; value ranges from 3.5-9.1; settings: po
Mus musculus [10] = assay: Dose required to cure 50% of Staphylococcus aureus infected mice when administered orally; settings: po
Mus musculus [11] = assay: Dose required to cure 50% of Staphylococcus aureus infected mice in the presence of eperezolid when administered orally; settings: po
Mus musculus [12] = assay: Dose required to cure 50% of Staphylococcus aureus infected mice in the presence of eperezolid when administered orally; value ranges from 2.9-7.1); settings: po
Mus musculus [13] = assay: Dose required to cure 50% of Staphylococcus aureus infected mice when administered orally; value ranges from 5.7-14.5; settings: po
Mus musculus [14] = assay: Dose required to cure 50% of Staphylococcus aureus infected mice when administered orally; value ranges from 3.1-13.1; settings: po
Mus musculus [15] = assay: Dose required to cure 50% of Staphylococcus aureus infected mice in the presence of vancomycin when administered orally; value arnges from 1.0-3.2; settings: po
Mus musculus [16] = assay: Dose required to cure 50% of Staphylococcus aureus infected mice in the presence of vancomycin when administered orally; value ranges from 1.43-3.5; settings: po
Mus musculus [17] = assay: Dose required to cure 50% of Staphylococcus aureus infected mice when administered orally; value ranges from 5.5-22.1; settings: po
Mus musculus [18] = assay: Dose required to cure 50% of Staphylococcus aureus infected mice in the presence of eperezolid when orally administered.; settings: po
Mus musculus [19] = assay: Dose required to cure 50% of Staphylococcus aureus infected mice in the presence of vancomycin when administered orally; value ranges from 2.5-6.4; settings: po
Mus musculus [20] = assay: Dose required to cure 50% of Staphylococcus aureus infected mice when administered orally; value ranges from 1.4-3.8; settings: po
Mus musculus [21] = assay: Dose required to cure 50% of Staphylococcus aureus infected mice in the presence of eperezolid when administered orally; value ranges from 1.8-7.0; settings: po
Mus musculus [22] = assay: Dose required to cure 50% of Staphylococcus aureus infected mice when aministered orally; value ranges from 0.8-2.0; settings: po
Mus musculus [23] = assay: Dose required to cure 50% of Staphylococcus aureus infected mice in the presence of vancomycin when orally administered; value ranges from 0.5-1.5; settings: po
Mus musculus [24] = assay: Dose required to cure 50% of Staphylococcus aureus infected mice when orally administered; settings: po
Mus musculus [25] = assay: Dose required to cure 50% of Staphylococcus aureus infected mice in the presence of eperezolid when orally administered; value ranges from 1.1-2.8; settings: po

Row | SMILES | MIC (Streptococcus pneumoniae) [µg/mL] | MIC [1] [µg/mL] | MIC (Enterococcus faecalis) [µg/mL] | MIC (Haemophilus influenzae) [µg/mL] | MIC (Moraxella catarrhalis) [µg/mL] | MIC (Staphylococcus aureus [4]) [µg/mL] | MIC (Staphylococcus aureus [5]) [µg/mL] | other results
1 | CC(=O)NC[C@H]1CN(c2ccc(-n3ccc(C#N)c3)c(F)c2)C(=O)O1 | ≤ 0.125 | ≤ 0.125 | – | – | – | – | – | ED50 (Mus musculus [2]): 4 mg/kg/day; ED50 (Mus musculus [3]): 1.9 mg/kg/day
2 | CC(=O)NC[C@H]1CN(c2ccc(-n3ncc(C#N)n3)c(F)c2)C(=O)O1 | ≤ 0.125 | ≤ 0.125 | 0.5 (≈ 1.45 µM) | 8 (≈ 23.2 µM) | 2 (≈ 5.81 µM) | 0.5 (≈ 1.45 µM) | 0.5 (≈ 1.45 µM) | ED50 (Mus musculus [6]): 3.2 mg/kg/day; ED50 (Mus musculus [7]): 3.8 mg/kg/day
3 | CC(=O)NC[C@H]1CN(c2ccc(-n3ccc(/C=N\O)c3)c(F)c2)C(=O)O1 | ≤ 0.125 | – | – | – | – | – | – | ED50 (Mus musculus [8]): 2.6 mg/kg/day; ED50 (Mus musculus [9]): 5.5 mg/kg/day
4 | COC(=O)c1cn(-c2ccc(N3C[C@H](CNC(C)=O)OC3=O)cc2F)nn1 | 1 (≈ 2.65 µM) | 2 (≈ 5.3 µM) | 4 (≈ 10.6 µM) | > 16 | 16 (≈ 42.4 µM) | 4 (≈ 10.6 µM) | 4 (≈ 10.6 µM) | ED50 (Mus musculus [10]): > 20 mg/kg/day; ED50 (Mus musculus [11]): 15.3 mg/kg/day
5 | CC(=O)NC[C@H]1CN(c2ccc(-n3cc(C(C)=O)nn3)c(F)c2)C(=O)O1 | 0.5 (≈ 1.38 µM) | 1 (≈ 2.77 µM) | 2 (≈ 5.54 µM) | 8 (≈ 22.1 µM) | 8 (≈ 22.1 µM) | 1 (≈ 2.77 µM) | 1 (≈ 2.77 µM) | ED50 (Mus musculus [12]): 4.4 mg/kg/day; ED50 (Mus musculus [13]): 8.8 mg/kg/day
6 | CC(=O)NC[C@H]1CN(c2ccc(-n3cncn3)c(F)c2)C(=O)O1 | 1 (≈ 3.13 µM) | 1 (≈ 3.13 µM) | 4 (≈ 12.5 µM) | 32 (≈ 100 µM) | 16 (≈ 50.1 µM) | 4 (≈ 12.5 µM) | 4 (≈ 12.5 µM) | ED50 (Mus musculus [14]): 5.7 mg/kg/day; ED50 (Mus musculus [15]): 2.4 mg/kg/day
7 | CC(=O)NC[C@H]1CN(c2ccc(-n3ccnc3)c(F)c2)C(=O)O1 | ≤ 0.5 | ≤ 0.5 | 2 (≈ 6.28 µM) | 8 (≈ 25.1 µM) | 4 (≈ 12.6 µM) | 1 (≈ 3.14 µM) | 2 (≈ 6.28 µM) | ED50 (Mus musculus [16]): 2.2 mg/kg/day; ED50 (Mus musculus [17]): 9.5 mg/kg/day
8 | CC(=O)NC[C@H]1CN(c2ccc(-n3ccc(/C(C)=N\O)c3)c(F)c2)C(=O)O1 | 0.25 (≈ 0.668 µM) | 0.5 (≈ 1.34 µM) | 1 (≈ 2.67 µM) | 8 (≈ 21.4 µM) | 2 (≈ 5.34 µM) | 1 (≈ 2.67 µM) | 2 (≈ 5.34 µM) | ED50 (Mus musculus [10]): 15 mg/kg/day; ED50 (Mus musculus [18]): 10 mg/kg/day
9 | CC(=O)NC[C@H]1CN(c2ccc(N3CCN(C(=O)CO)CC3)c(F)c2)C(=O)O1 [EPEREZOLID] | – | – | – | – | – | – | – | ED50 (Mus musculus [19]): 3.9 mg/kg/day; ED50 (Mus musculus [20]): 1.9 mg/kg/day
10 | CC(=O)NC[C@H]1CN(c2ccc(-n3cc(C#N)cn3)c(F)c2)C(=O)O1 | ≤ 0.125 | 0.25 (≈ 0.728 µM) | – | – | – | – | – | ED50 (Mus musculus [21]): 3.3 mg/kg/day; ED50 (Mus musculus [22]): 1.2 mg/kg/day
11 | CC(=O)NC[C@H]1CN(c2ccc(-n3ccc(CO)c3)c(F)c2)C(=O)O1 | 0.25 (≈ 0.72 µM) | 0.25 (≈ 0.72 µM) | 1 (≈ 2.88 µM) | 4 (≈ 11.5 µM) | 2 (≈ 5.76 µM) | 1 (≈ 2.88 µM) | 1 (≈ 2.88 µM) | ED50 (Mus musculus [23]): 0.9 mg/kg/day; ED50 (Mus musculus [24]): > 20 mg/kg/day
12 | CC(=O)NC[C@H]1CN(c2ccc(-n3cccn3)c(F)c2)C(=O)O1 | 1 (≈ 3.14 µM) | 1 (≈ 3.14 µM) | 2 (≈ 6.28 µM) | 32 (≈ 101 µM) | 16 (≈ 50.3 µM) | 2 (≈ 6.28 µM) | 2 (≈ 6.28 µM) | ED50 (Mus musculus [25]): 1.8 mg/kg/day; ED50 (Mus musculus [24]): > 20 mg/kg/day
13 | CC(=O)NC[C@H]1CN(c2ccc(-n3cc(NC(=O)OC(C)(C)C)cn3)c(F)c2)C(=O)O1 | 1 (≈ 2.31 µM) | 2 (≈ 4.61 µM) | 8 (≈ 18.5 µM) | > 16 | > 16 | 4 (≈ 9.23 µM) | 8 (≈ 18.5 µM) | –
